Results as given in patent US20090156662A1, “Fat Absorption Inhibitor” (ITO EN, LTD., priority 2006, published 2009).

Tests used:
[1] = Micellar cholesterol release: cholesterol remaining in bile acid micelles after incubation with test substance, filtration and GC; conditions: for micellar cholesterol concentration: Embodiment 4, same method as Embodiment 1, FIG. 5
Protocol: Prepared were micelles composed of 0.5 mM of cholesterol, 6.6 mM of sodium taurocholate, 0.6 mM of phosphatidyl choline of egg yolk origin, 132 mM of sodium chloride (NaCl) and 15 mM of sodium phosphate (NaH2PO4.2H2O). The micelles were incubated for 24 hours at 37° C. for stabilizing the micelles. Then 0.1 mL solution of each theaflavin (manufactured by Nagara Science Co.) was added to each of 3 mL portions of the micelles in such a manner that their concentrations were to be respectively 0 μg, 200 μg and 800 μg to 1 mL of the micelles, which were then incubated at 37° C. for 1 hour. After that, each of solutions was filtered through a 220 nm filter (manufactured by Whatman Co.) to obtain a clear micelle solution. Cholesterol was extracted from each micelle solution obtained, and the concentration of cholesterol remained in the micelles was measured using a gas chromatograph (manufactured by Shimadzu Corp.) using 5α-cholestane as an internal standard.
(§1) Prepared were micelles composed of 0.5 mM of cholesterol (manufactured by Sigma Co.), 6.6 mM of sodium taurocholate (manufactured by Nacalai Tesque Inc.), 0.6 mM of phosphatidyl choline from egg yolk (manufactured by Sigma Co.), 132 mM of sodium chloride (NaCl, manufactured by Nacalai Tesque Inc.) and 15 mM of sodium phosphate (NaH2PO4.2H2O, manufactured by Nacalai Tesque Inc.). The micelles were incubated at 37° C. for 24 hours for stabilization. Then 0.1 mL solution of the theaflavins formulation (manufactured by Funakoshi Corp.) was added to each of 3 mL portions of the micelles in such a manner that their concentrations were respectively 0 μg, 200 μg and 800 μg to 1 mL micelles, and the solutions were incubated at 37° C. for 1 hour (n=3). Each solution was filtered through a 220 nm filter to obtain a clear solution. Cholesterol was extracted from each micelle solution, and cholesterol remained in the micelle was measured with a gas chromatograph (manufactured by Shimadzu Corp.) using 5α-cholestane as an internal standard.
Next, micelles for test were prepared (pH 6.8) at a composition of 0.5 mM of cholesterol, 6.6 mM of sodium taurocholate, 0.6 mM of egg yolk phosphatidyl choline, 132 mM of sodium chloride (NaCl) and sodium phosphate (NaH2PO4.2H2O), and the micelles were incubated at 37° C. for 24 hours for stabilization. […]

[2] = Concentration of bile acid in the micelle solution by the enzymatic method (Eaton et al.); conditions: Embodiment 3; FIG. 4
Protocol: as §1
Moreover, the concentration of bile acid was measured by the enzymatic method in accordance with the process of Eaton et al (Eaton, D. L. et al., Proc. Soc. Exp. Biol. Med. 1976, January; 151(1): 198-202).

[3] = Micellar cholesterol release: cholesterol remaining in bile acid micelles after incubation with test substance, filtration and GC; conditions: for concentration of cholesterol in the micelles / concentration of micellar cholesterol relative to the case using theaflavin or theaflavin digallate: Embodiment 1; for concentration of cholesterol in the micelles: amount of addition raised up to 0.5 mM, incubated 37° C. 1 hour, FIG. 1; for concentration of micellar cholesterol relative to the case using theaflavin or theaflavin digallate: at an amount of 0.5 mM addition

## O=C(O[C@@H]1Cc2c(O)cc(O)cc2O[C@@H]1c1ccc(O)c(O)c1)c1cc(O)c(O)c(O)c1 [epicatechin gallate]
[1]
  micellar cholesterol concentration: little effect

## O=C(O[C@@H]1Cc2c(O)cc(O)cc2O[C@@H]1c1cc(O)c(O)c(O)c1)c1cc(O)c(O)c(O)c1 [epigallocatechin gallate]
[2]
  effect on the concentration of bile acid: did not show any effect
[1]; Embodiment 3, 0, 200 and 800 μg to 1 mL micelles, 37° C. 1 hour, n=3, FIG. 3
  concentration of cholesterol in the micelles: decreased
[1]
  micellar cholesterol concentration: decreased

## O=C(O[C@@H]1Cc2c(O)cc(O)cc2O[C@@H]1c1cc(O)c(O)c2c(=O)c(O)cc([C@H]3Oc4cc(O)cc(O)c4C[C@H]3O)cc12)c1cc(O)c(O)c(O)c1 [theaflavin-3′-monogallate]
[3]
  concentration of cholesterol in the micelles: decreased in a manner dependent on the amount of addition
  concentration of micellar cholesterol relative to the case using theaflavin or theaflavin digallate: decreased about twice

## O=C(O[C@@H]1Cc2c(O)cc(O)cc2O[C@@H]1c1cc(=O)c(O)c2c(O)c(O)cc([C@H]3Oc4cc(O)cc(O)c4C[C@H]3O)c2c1)c1cc(O)c(O)c(O)c1 [theaflavin-3-monogallate]
[3]
  concentration of cholesterol in the micelles: decreased in a manner dependent on the amount of addition
  concentration of micellar cholesterol relative to the case using theaflavin or theaflavin digallate: decreased about twice

## O=C(O[C@@H]1Cc2c(O)cc(O)cc2O[C@@H]1c1cc(O)c(=O)c2c(O)c(O)cc([C@H]3Oc4cc(O)cc(O)c4C[C@H]3OC(=O)c3cc(O)c(O)c(O)c3)c2c1)c1cc(O)c(O)c(O)c1 [theaflavin-3,3′-digallate]
[3]
  concentration of cholesterol in the micelles: did not change
[3]; Embodiment 2, amount of addition increased up to 2 mmol/L, FIG. 2
  micelle formation inhibitory effect: excellent micelle formation inhibitory effect
[3]; Embodiment 2, amount of addition up to 1 mmol/L, FIG. 2
  cholesterol decreasing effect: relatively gentle
[1]
  micellar cholesterol concentration: little effect

## O=c1c(O)cc([C@H]2Oc3cc(O)cc(O)c3C[C@H]2O)cc2c([C@H]3Oc4cc(O)cc(O)c4C[C@H]3O)cc(O)c(O)c12 [theaflavin]
[3]
  concentration of cholesterol in the micelles: did not change
